# Data as given in US6130250A, “Veterinary use of a pleuromutilin derivative” (priority 1996, dated 2000).
# “Also recorded” adds a separate entry of the source. Structures can show the parent of a compound that is named as a salt.
# Tests used:
# [1] = test system: S. hyodysenteriae; details: cited from earlier work
# [2] = test system: M. hyopneumoniae; assay: Development of resistance (habituation study), MIC before and after passages; format: cell-based, Mycoplasma hyopneumoniae; details: for Resistance increase: up to P10/P11
# Experimental: Mycoplasma hyopneumoniae reference strain NCTC 10110 (obtained from the National Collection of Type Cultures, London, UK) and a recent field isolate (MEVT G23), are grown aerobically at 36° C. in Mycoplasma glucose broth containing phenol red until an acid colour change occurs. After addition of sterile glycerol (5% v/v) the cultures are dispensed in 1 ml aliquots and frozen at -70° C. These cultures are used to initiate further broth cultures which are titrated to obtain the number of colour changing units (ccu) in microtitre plates after incubation (36° C.). Replication allows challenge of antibiotic dilutions with predetermined numbers of ccu in minimal inhibitory concentration (MIC) tests and in the primary passage in habituation studies.
# A commercially available medium (Mycopiasma Experience Ltd.) containing glucose and phenol red (MEGB) is used at pH 7.6.
# Stock test compound solutions are prepared at 1000 μg/ml in deionized water. After vortexing, the solutions are sterilized by filtration through 0.2μ pore size membrane filters (Sartorius Minisart, N). For use in the MIC tests the stock solutions are diluted in mycoplasma broth to double the final concentrations required. In habituation studies the stock solutions are dispensed in 1 ml aliquots and frozen at -20° C. These are thawed and used at 5 day-7 day intervals to prepare ranges of concentrations of drug (doubling series) in MEGB, in 1.9 ml aliquots, covering the MICs against both strains of M. hyopneumoniae. Oxytetracycline hydrochloride is prepared fresh on each occasion. The dilution ranges are gradually changed from passage to passage to allow for the development of resistance in the mycoplasmas.
# MIC tests are carried out by the method of Tanner & Wu, Avian Diseases 36 (1992) 714-717 before carrying out the habituation study (below) and after the 10th passages 0.1 ml aliquots of the compound dilution are mixed with 0.1 ml aliquots of the challenge inocula, containing between 10^3 and 10^5 colour changing units (ccu) per ml, in microtitre wells. Each microtitre plate contains uninoculated medium, medium at pH 6.8 (end-point-control) and drug-free inoculated challenge controls. All plates are sealed and incubated aerobically at 36° C. MICs are recorded when the colour change in the challenge control wells match the pH 6.8 control (orange-yellow). The MIC is the lowest concentration to show no colour change.
# Habituation study: In the primary passage experiment, 1.9 ml volumes of antibiotic solutions at concentrations covering the MIC of the M. hyopneumoniae strain under test, are inoculated with 0.1 ml of broth culture containing between 10^3 ccu/ml to 10^5 ccu/ml. A growth control consisting of drug-free broth inoculated with M. hyopneumoniae and an uninoculated medium control are included in each passage experiment. After 7 days incubation (36° C.) the two highest concentrations of drug-containing broth showing an acid colour change are pooled and used to inoculate a fresh series of drug dilutions in mycoplasma broth (0.1 ml culture into 1.9 ml drug-containing broth). This process is repeated every 5-7 days for up to 10 passages. When the mycoplasma strains become resistant to particular antibiotics, or at the 10th passage, each strain is grown once more in drug-containing broth and the MICs determined.
# [3] = test system: M. hyopneumoniae; assay: MIC against M. hyopneumoniae strains isolated from challenge material; format: cell-based, Mycoplasma hyopneumoniae; details: Mesomycoplasma hyopneumoniae
# [4] = test system: M. hyopneumoniae; assay: Prevention of experimentally-induced enzootic pneumonia in vivo (Trials 1-3); parameters: species or system pigs
# Experimental: An experimental model of enzootic pneumonia, using passaged lung material originally derived by infection of gnotobiotic pigs with M. hyopneumoniae,was employed to assess the potential of valnemulin for prevention of the disease. Three trials were performed: Trials 1 and 2 were dose titration studies of the novel compound using a standard challenge strain of M. hyopneumoniae and in Trial 3, the efficacy of the compound at 200 ppm in feed against a second challenge strain was assessed. Large white Landrace male pigs, 6-7 weeks of age, from stock free of infection with M. hyopneumoniae are used. The challenge materials are pneumonic lungs containing M. hyopneumoniae given as a homogenate intranasally on three successive days. […] The challenge material was originally derived by infection of gnotobiotic pigs with M. hyopneumoniae and subsequent passage in SPF (Specific Pathogen-free) pigs and had been stored below -70° C.
# Trial 1: Medication with valnemulin hydrochloride by stomach tube (gavage) once a day at 0 (control), 2.5, 5, 7.5 or 10 mg/kg body weight per day. Six pigs per group.
# Trial 2: Medication with valnemulin hydrochloride in feed at 0, 100, 200, 300 or 400 ppm (equivalent to 0, 5, 10, 15 and 20 mg/kg/day). Six pigs per group.
# Trial 3: Medication with valnemulin hydrochloride in feed at 0 or 200 ppm (equivalent to 0 and 10 mg/kg/day). Eight pigs per group. Medication was given from the first day of challenge infection until post-mortem examination performed approximately 3 weeks after challenge infection. Disease was assessed by quantifying lung lesions [Cambridge lung lesion scoring system (Goodwin, R. F. W. and Whittlestone, P., J. Hyg. 69 [1971] 391-397), in which the score is an approximation of percent of lung affected with pneumonia], by estimation of lung-bodyweight ratio and by isolation of M. hyopneumoniae from lungs.
# [5] = test system: Lawsonia intracellularis; assay: Challenge study: porcine proliferative enteropathy; format: in vivo, pigs
# [6] = Trial 2, feed, 100 ppm (5 mg/kg)
# [7] = Trial 2, feed, 200 ppm (10 mg/kg)
# [8] = Trial 2, feed, 300 ppm (15 mg/kg)
# [9] = Trial 2, feed, 400 ppm (20 mg/kg)
# [10] = Trial 3, feed, 200 ppm (10 mg/kg)
smiles,measurement,setting,value
C=C[C@]1(C)C[C@@H](OC(=O)CSCCN(CC)CC)[C@]2(C)[C@H](C)CC[C@]3(CCC(=O)[C@H]32)[C@@H](C)[C@@H]1O [tiamulin hydrogen fumarate],elimination of S. hyodysenteriae,"[1]; tiamulin 35 and 40 ppm, Taylor 1980",eliminate S. hyodysenteriae from faeces but not prevent the recovery from mucosal scrapings
same,treatment of swine dysentery,"[1]; tiamulin 100 ppm, less severely affected animals, Taylor 1982",successfully used under experimental conditions
"C=C[C@]1(C)C[C@@H](OC(=O)CSC(C)(C)CNC(=O)[C@H](N)C(C)C)[C@]2(C)[C@H](C)CC[C@]3(CCC(=O)[C@H]32)[C@@H](C)[C@@H]1O [valnemulin hydrochloride, 14-O-[1-[(R)-2-amino-3-methylbutyrylamino]-2-methylpropan-2-ylthioacetyl]mutilin]",resistance development in words,"[2]; M. hyopneumoniae strains, in vitro passages",resistance development was minimal; also recorded: does not induce significant resistance to itself
same,MIC,"[2]; Mesomycoplasma hyopneumoniae, NCTC10110, read-out: Post-passage MIC up to P10/P11",5 ng/mL
same,Resistance increase,[2]; NCTC 10110,2 fold
same,activity greater than those of tylosin and oxytetracycline,"[2]; before exposure, both strains",50-100 told
same,Resistance increase,[2]; field isolate,2.5 fold
same,MIC,[3]; strain from material used in Trial 3,7.8 ng/mL
same,MIC,[3]; strain in material used in Trials 1 & 2,16 ng/mL
same,pigs from which M. hyopneumoniae was reisolated,"[4]; Trial 1, 2.5 mg/kg",4 pigs
same,reduction of lesions,"[4]; Trial 1, 7.5 mg/kg",71%
same,pigs from which M. hyopneumoniae was reisolated,"[4]; Trial 1, 10 mg/kg",1 pigs
same,reduction of lesions,"[4]; Trial 1, 10 mg/kg",87%
same,effect on lesions in words,"[4]; Trial 1, 2.5 and 5 mg/kg/day",somewhat less effective at reducing lesions
same,Lung lesion score,"[4]; Trial 1, gavage, 2.5 mg/kg/day",7.7
same,Lung-bodyweight ratio,"[4]; Trial 1, gavage, 2.5 mg/kg/day",1.21%
same,Lung lesion score,"[4]; Trial 1, gavage, 5 mg/kg/day",11.1
same,Lung-bodyweight ratio,"[4]; Trial 1, gavage, 5 mg/kg/day",1.31%
same,Lung lesion score,"[4]; Trial 1, gavage, 7.5 mg/kg/day",3.8
same,Lung-bodyweight ratio,"[4]; Trial 1, gavage, 7.5 mg/kg/day",1.21%
same,Lung lesion score,"[4]; Trial 1, gavage, 10 mg/kg/day",1.7
same,Lung-bodyweight ratio,"[4]; Trial 1, gavage, 10 mg/kg/day",1.08%
same,pigs from which M. hyopneumoniae was reisolated,"[4]; Trial 2, 100 ppm",4 pigs
same,reduction in lesions,"[4]; Trial 2, 100 ppm",No reduction in lesions
same,pigs from which M. hyopneumoniae was reisolated,"[4]; Trial 2, 200 ppm",3 pigs
same,reduction of lesions,"[4]; Trial 2, 200 ppm",46%
same,reduction of lesions,"[4]; Trial 2, 300 ppm",43%
same,reisolation of M. hyopneumoniae,"[4]; Trial 2, 300 ppm",not reisolated
same,reduction of lesions,"[4]; Trial 2, 400 ppm",71%
same,reisolation of M. hyopneumoniae,"[4]; Trial 2, 400 ppm",not reisolated
same,Lung lesion score,[4]; [6],25
same,Lung-bodyweight ratio,[4]; [6],1.53%
same,Lung lesion score,[4]; [7],12
same,Lung-bodyweight ratio,[4]; [7],1.29%
same,Lung lesion score,[4]; [8],12.7
same,Lung-bodyweight ratio,[4]; [8],1.27%
same,Lung lesion score,[4]; [9],6.3
same,Lung-bodyweight ratio,[4]; [9],1.24%
same,reduction of lung weights,"[4]; Trial 2, levels down to 200 ppm",significant reductions at levels down to 200 ppm
same,"levels of M. hyopneumoniae at post-mortem, medicated vs unmedicated","[4]; Trial 3, 200 ppm",no difference in the levels of M. hyopneumoniae
same,reduction of lesion scores,"[4]; Trial 3, 200 ppm in feed",79%
same,Lung lesion score,[4]; [10],2.3
same,Lung-bodyweight ratio,[4]; [10],1.21%
same,prevention of experimentally-induced enzootic pneumonia,"[4]; separate experiments, two challenge strains",effective for the prevention of experimentally-induced enzootic pneumonia
same,prevention or treatment of disease in words,[5]; low actual doses,prevented or treated the disease in a large proportion of challenged pigs
same,pigs with no visible lesions of proliferative enteropathy,"[5]; prevention group, 25/75 ppm from two days before challenge",3 of 7
same,pigs with no visible lesions of proliferative enteropathy,"[5]; treatment group, 25/75 ppm from seven days after challenge",5 of 7
